Read-outs that look alike come from different tables or passages of the source.

For experiment [1] the following is noted: cited from earlier work; for bone mineral density: early postmenopausal women, Ruml et al., 1999.
A short description of experiment [2]: Metabolic study on prevention of kidney stone formation: alkali load, urinary stone risk factors, urinary saturation. In kind it is in vivo, human. The settings on record: two-week phase, 24-hour urine; for urinary ammonium / net gastrointestinal absorption of alkali: change from placebo phase; for net gastrointestinal absorption of alkali: postmenopausal women, constant diet. The text has this: A total of eighteen postmenopausal women without kidney stones underwent four phases of study chosen in random order while they were kept on a constant diet in a metabolic ward. […] During last two days of each phase, urine was collected in 24-hour pools for biochemistry and stone risk factors.
Provision of alkali load. […] If an alkali load is delivered, the net gastrointestinal absorption of alkali (calculated from urinary electrolytes) increases and urinary ammonium decreases (as a normal response of kidneys to alkali).

Experiment [3] in a line: Metabolic study on preventing bone loss: serum calcium, parathyroid hormone, bone turnover markers. The settings on record: for decline in markers of bone resorption (urinary hydroxyproline, urinary N-telopeptide, serum type 1 collagen C-telopeptide): change from placebo phase; for serum calcium / serum parathyroid hormone: last two days of two-week phase. In kind it is in vivo, human. Here is the method:
During the last two days of each two-week phase, serum and 24-hour urine samples were collected for assessment of calcium metabolism, alkali load, and bone turnover markers.
Markers of bone turnover. The effect of treatment on bone resorption (destruction) was evaluated from urinary hydroxyproline, urinary N-telopeptide, and serum type 1 collagen C-telopeptide. These bone-derived substances are called markers of bone resorption, since they are elevated in states of high bone destruction.

For experiment [4] the following is noted: cited from earlier work.

Turning to `O=C([O-])[O-].[Ca+2]` [calcium carbonate], the bone mineral density entry in experiment [1] is on record as “only partially effective”.

Consider `O=C([O-])CC(O)(CC(=O)[O-])C(=O)[O-].O=C([O-])CC(O)(CC(=O)[O-])C(=O)[O-].[Ca+2].[Ca+2].[Ca+2]` [calcium citrate], for which, in experiment [2], the urinary ammonium entry is “slightly but significantly decreased”, the “net gastrointestinal absorption of alkali” value was “marginally increased”, the urinary calcium result was “increased” and the urinary citrate entry was “increased in the same direction”. In experiment [2], the urinary oxalate entry is “decreased significantly”, the “urinary pH” value was “increased marginally” and the “urinary saturation of calcium oxalate” value was “increased marginally”. Besides, in experiment [3], the “decline in markers of bone resorption (urinary hydroxyproline, urinary N-telopeptide, serum type 1 collagen C-telopeptide)” value is “intermediate”; the serum calcium result is on record as “increased slightly”; the serum parathyroid hormone entry is reported as “significantly decreased”. In experiment [1] (calcium citrate supplementation, literature), the urinary citrate result is listed as “modestly increases”. The bone mineral density entry in experiment [1] is “prevent, though not increase”.

In the case of `O=C([O-])CC(O)(CC(=O)[O-])C(=O)[O-].[K+].[K+].[K+]` [potassium citrate], in experiment [2], the urinary ammonium result is “reduced”; the “net gastrointestinal absorption of alkali” value is “significantly and substantially increased”; the urinary calcium result is listed as “decreased”; the urinary citrate result is reported as “increased in the same direction”. Moreover, in experiment [2], the urinary oxalate result is “unaffected”; the “urinary pH” value was “significantly and substantially rose”; the “urinary saturation of calcium oxalate” value was “declined”. In experiment [3], the “decline in markers of bone resorption (urinary hydroxyproline, urinary N-telopeptide, serum type 1 collagen C-telopeptide)” value was “least prominent”; the serum calcium result is recorded as “did not change”; the serum parathyroid hormone entry was “did not change”. For the same molecule, the bone density entry in experiment [4] (Pak et al., 2001) is recorded as “increase bone density”. Besides, in experiment [4] (Sakhaee et al., 1991), the “calcium loss into urine” value is recorded as “prevent calcium loss into urine”. Moreover, the urinary citrate entry in experiment [4] (literature) is recorded as “effective in increasing urinary citrate”.
